# Experimental data from US11622980B2, “Compositions comprising prebiotics and probiotics” (OPTIBIOTIX LIMITED, priority 2017, dated 2023).
# “Also recorded” adds a separate entry of the source. Read-outs that look alike come from different tables or passages of the source.
# What was measured:
# [1] = tested on: gas producing members of the faecal microbiota; assay: Rate of gas and cumulative gas determination in non-pH controlled faecal culture; assay type: cell-based, healthy adults
# Protocol: The aims of this experiment were to determine: (i) the total gas production over a 24 h fermentation period of each of carbohydrate of interest; (ii) the kinetics of gas production (rate) to evaluate the potential of increased abdominal discomfort in vivo upon the ingestion of the carbohydrates of interest; and (iii) the impact of using the selected carbohydrates in combination with LR on total and rate of gas production.
# Determination of rate of gas was of particular importance as gas generation at specific time points rather than continuously at low or moderate levels may correlate with abdominal discomfort in vivo and important in relevance to consumer acceptability.
# The experiments investigated the potential for gastrointestinal discomfort in vitro, through the determination of rate of gas and cumulative gas production in faecal culture. The cultures were non-pH controlled and six experimental runs were conducted using faeces from six different healthy adults. Headspace gas readings collected every 3 h over a 24 h period for rate of gas determination
# The experimental design was as follows: • Faeces • Faeces+L. rhamnosus ATCC 53103 (negative control) • Faeces+Inulin HP (positive prebiotic control) • Faeces+Inulin HP+L. rhamnosus ATCC 53103 (positive synbiotic control) • Faeces+test carbohydrate • Faeces+test carbohydrate+L. rhamnosus ATCC 53103 Lactobacillus rhamnosus ATCC 53103 Test Dose Determination
# Intervention dose used in the non-pH controlled gas determination experiments and the pH controlled faecal batch culture experiments was calculated based on the relative amounts of faecal inoculum and LR viable counts in the gut model (low dose, 0.75×10^4 cfu) and the relative concentrations of total bacteria to LR viable counts in the gut model (high dose, 5.36×10^4 cfu). Both doses were tested in the non-pH controlled gas determination faecal cultures to determine the possible role of LR in rate and cumulative gas production.
# [2] = tested on: Bacteroides/Prevotella (Bac303); assay: FISH of commensal bacteria in pH controlled faecal culture, probe Bac303; assay type: cell-based, healthy adults; settings: pH controlled anaerobic faecal culture
# Protocol: (§1) All vessels, run in parallel, were to be inoculated with the same faecal sample and the experiment repeated using a faecal sample from each of six different healthy donors. Samples were to be obtained at inoculation (0 h) and then at 8 and 24 h of fermentation for: determination of LR levels in faecal culture using qPCR; and determination of the impact of each intervention on commensal faecal microbiome composition using FISH to ensure novel prebiotic will not be fermented by undesirable bacteria and ensure selectivity in a complex, competitive culture environment. Analysis targeted numerically dominant and functionally significant faecal bacterial groups including Bacteroides, Clostridium, Eubacterium, Propionibacterium, Bifidobacterium, Lactobacillus, Faecalibacterium, Atopobium, and Desulfovibrio.
# (§2) An in vitro assessment of synbiotic efficacy in faecal culture using a pH controlled, anaerobic, temperature controlled cultures. The cultures were inoculated with faecal slurry of each of 6 healthy adults. […]
# (§3) Fluorescent in situ hybridisation (FISH) experiments were then conducted to investigate the impact on commensal gut microbiome bacterial populations in faecal culture and the fluorescently labelled micrographs are shown in FIG. 20. FISH is a fully quantitative methodology for determining bacterial concentrations at the genus and species level. […]
# [3] = tested on: Lactobacillus plantarum 2830 (ECGC 13110402); assay: Pure culture growth of Lactobacillus plantarum 2830 (LP-LDL) on carbohydrate sources; assay type: cell-based; settings: modified MRS, glucose (1% wt/vol) substituted, anaerobic, 37° C., OD 620 nm
# Protocol: Similar growth experiments to Example 1 above were conducted on Lactobacillus plantarum 2830 (ECGC 13110402) on a range of substrates including, MRS+LP, Glucose, Lactose, LP GOS, alphaGOS (a proprietary GOS product), Raffinose, Galactose, Cellobiose, FOS (short chain), Sucrose, GOS I (a proprietary GOS product), GOS II (a proprietary GOS product), GOS III (a proprietary GOS product) and Gentiooligosaccharides (GeOS). […] Experiments were carried out under anaerobic conditions on a 96-well microtiter plate system (FLUOstar Omega, BMG LABTECH) in a final volume of 200 μL using an inoculum size 10% (w/v), previously diluted to obtain an initial OD620 nm=0.2. Incubation was conducted under anaerobic conditions at 37° C. with interval shaking at 500 rpm every 5 min. Optical density measurements at 620 nm were employed to assess microbial growth.
# L. rhamnosus ATCC 53103 [4] = assay: Organic acid (SCFA and lactate) synthesis in pH controlled faecal batch culture; assay type: cell-based, Lactobacillus rhamnosus; settings: pH controlled faecal batch cultures with LR
# Description: Lastly, determination of faecal microbiome activity through organic acid (SOFA and lactate) measurement was to be conducted at each sampling point. Information will indicate potential fermentation rates of each novel prebiotic.
# (§4) An in vitro assessment of synbiotic efficacy in faecal culture using a pH controlled, anaerobic, temperature controlled cultures. The cultures were inoculated with faecal slurry of each of 6 healthy adults. The combinations included: • Faeces (prebiotic negative control) • Faeces+LR (synbiotic negative control) • Faeces+LR+GeOS (gentiooligosaccharides) • Faeces+LR+Cellb (cellobiose) • Faeces+LR+XOS (xylooligosaccharides) • Faeces+GeOS • Faeces+Cellb • Faeces+XOS • Feces+inulin (positive prebiotic control for test prebiotics) • Faeces+FOS (positive prebiotic control for test prebiotics) • Faeces+LR+inulin (positive prebiotic control for test synbiotics) • Faeces+LR+FOS (positive prebiotic control for test synbiotics)
# L. rhamnosus ATCC 53103 [5] = assay: Pure culture growth screening of L. rhamnosus ATCC 53103 on oligo/polysaccharides; assay type: cell-based, Lactobacillus rhamnosus
# Description: Commercially available prebiotics and other oligo and polysaccharides were first screened using a fast throughput automated growth culture system under anaerobic conditions to establish ability to support LR growth and define growth rates (1% w/v). The following test substrates had been initially identified for further consideration: Short chain fructooligosaccharides (scFOS), oligofructose P95 (FOS), Orafti ST, Orafti HP, Synergy 1, Bioecolians (glucooligosaccharides), gentiooligosaccharides, fucosyllactose, ß glucan (low/medium/high molecular weight; derived from oats), yeast ß glucan, arabinoxylan, xylooligosaccharides, caseinoglycomacropeptide (cgmp), raffinose, stachyose and Bio-Mos.
# The aim of the experiment was to investigate the growth behavior of L. rhamnosus ATCC 53103 under a wide variety of commercially available, oligo and polysaccharides and to evaluate impact of test substrate physical characteristics on screening process and investigate growth on GOS synthesized by L. rhamnosus GR1 β-galactosidases. Results would be evaluated on the basis of: microbial growth (OD-Fermentation time); growth rate [μmax(h^−1)]; and change in optical density (max-min). Growth preferences of Lactobacillus rhamnosus ATCC 53103 would be used to determine target structures and carbohydrates for use as prebiotics for L. rhamnosus species or strains. […]
# Ato291 (Atopobium) = assay: FISH of commensal bacteria in pH controlled faecal culture, probe Ato291; assay type: cell-based, healthy adults; settings: pH controlled anaerobic faecal culture, FIG. 25
# Protocol: as §1, §2, §3
# L. rhamnosus ATCC 53103 [6] = assay: qPCR determination of LR concentrations in anaerobic pH controlled faecal batch culture; assay type: cell-based, Lactobacillus rhamnosus; settings: for LR concentration (growth) in faecal culture: pH controlled anaerobic faecal batch culture, 1% w/v substrate, LR 5.36×10^4 cfu
# Protocol: Synbiotic potential of the selected oligosaccharides/blends was then to be determined in 24 h, anaerobic, pH and temperature controlled micro-scale faecal (10 ml working volume) faecal batch culture models.
# The models had been optimised to work at 1% w/v test oligosaccharide concentration and carried out at pH6.8, which is relevant to the distal colon. Conditions in the distal colon (carbohydrate availability, very slow transit time) are more relevant to batch culture design. Fermentations were to be set up in parallel in identical conditions with the only variable being the test oligosaccharides. The following combinations were to be tested in each experimental run: • Faeces (prebiotic negative control) • Faeces+LR (synbiotic negative control) • Faeces+LR+GeOS (gentiooligosaccharides) • Faeces+LR+Cellb (cellobiose) • Faeces+LR+XOS (xylooligosaccharides) • Faeces+GeOS • Faeces+Cellb • Faeces+XOS • Feces+inulin (positive prebiotic control for test prebiotics) • Faeces+FOS (positive prebiotic control for test prebiotics) • Faeces+LR+inulin (positive prebiotic control for test synbiotics) • Faeces+LR+FOS (positive prebiotic control for test synbiotics)
# as §1, with “Samples were to be obtained at inoculation (0 h) and then at 8 and 24 h of fermentation for: determination of LR” left out
# as §4
# No commensal LR was detected in the prebiotic only cultures (data not shown).
# The primers for the real-time PCR determination was as follows: […]
# [7] = tested on: Lactobacillus/Enterococcus (Lab158); assay: FISH of commensal bacteria in pH controlled faecal culture, probe Lab158; assay type: cell-based, healthy adults
# Protocol: as §1, §2, §3
Compound,donors sensitive to the test oligosaccharide (total gas production) [1],rate of gas production [1],tolerance by donors (total gas and rate of gas) [1],Bacteroides/Prevotella (Bac303) concentration [2],growth rates of LP-LDL [3],growth yields of LP-LDL [3],LR activity (organic acid synthesis) (L. rhamnosus ATCC 53103 [4]),"lag phase (L. rhamnosus ATCC 53103 [5]; pure culture growth curves, 1% (w/v) substrate, FIG. 9)","growth of LR in pure culture (L. rhamnosus ATCC 53103 [5]; pure culture, modified MRS, 1% w/v test carbohydrate)",Ato291 concentrations (Ato291 (Atopobium)),"volunteers showing an increase of L. rhamnosus ATCC 53103 concentrations (L. rhamnosus ATCC 53103 [6]; 0, 10 and 24 h pH controlled faecal batch culture, six volunteers, qPCR)",LR concentration (growth) in faecal culture (L. rhamnosus ATCC 53103 [6]; qPCR),"LR concentration (growth) in faecal culture (L. rhamnosus ATCC 53103 [6]; qPCR, listed as Cellobiose)","dependence of the effect on LR on faecal donor (L. rhamnosus ATCC 53103 [6]; pH controlled faecal batch cultures, six donors)","rate of gas production ([1]; 24 h non-pH controlled faecal culture, readings every 3 h, relative to inulin)","cumulative gas production ([1]; 24 h non-pH controlled faecal culture, relative to inulin)","donors sensitive to the test oligosaccharide (total gas production) ([1]; 24 h non-pH controlled faecal fermentation, six faecal donors)",responders within the 6 faecal donors (Lab158) ([7]; compared to the positive controls (inulin and FOS)),"Lab158 (Lactobacillus/Enterococcus) concentration ([7]; pH controlled anaerobic faecal culture, six healthy adults, FISH)"
gentiooligosaccharides [GeOS],Donors 4 and 7,comparable to that of inulin,tolerated the best by the majority of donors,,,,,,,,,,,,,,,,
xylooligosaccharides [XOS],Donors 4 and 7,comparable to that of inulin,tolerated the best by the majority of donors,,,,,,,,,,,,,,,,
O=C[C@H](O)[C@@H](O)[C@H](O[C@@H]1O[C@H](CO)[C@@H](O)[C@H](O)[C@H]1O)[C@H](O)CO [cellobiose],,,,some impact,highest growth rates,highest growth yields,mediated increases in LR concentration and activity,notably longer lag phase,can grow in pure culture,some increases,Five out of the six,growth of LR,best growth substrate for LR; also recorded: increases in LR concentration,not dependent on faecal donor enterotype,comparable to that of inulin,comparable to that of inulin,Donors 4 and 7; also recorded: donor 5,More responders,significant increase
